Measurements reported in PubChem BioAssay (NCI).
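These data come from cells grown in 96-well plates and exposed to compound for 48 hours at five concentrations. Abbreviation: GI50, concentration required for 50% inhibition of growth. TGI is the concentration that stops growth completely.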

Columns and labels:
Assay in all cases: growth of human tumour cells (NCI), 48 h
HCT-15 colon = test system: HCT-15 colon
T-47D breast = test system: T-47D breast
TK-10 renal = test system: TK-10 renal
DU-145 prostate = test system: DU-145 prostate
SNB-19 CNS = test system: SNB-19 CNS
SF-268 CNS = test system: SF-268 CNS
OVCAR-4 ovarian = test system: OVCAR-4 ovarian
CCRF-CEM leukemia = test system: CCRF-CEM leukemia
HCT-116 colon = test system: HCT-116 colon
RPMI-8226 leukemia = test system: RPMI-8226 leukemia
SF-295 CNS = test system: SF-295 CNS
SK-MEL-28 melanoma = test system: SK-MEL-28 melanoma
OVCAR-5 ovarian = test system: OVCAR-5 ovarian
SK-OV-3 ovarian = test system: SK-OV-3 ovarian
M14 melanoma = test system: M14 melanoma
SR leukemia = test system: SR leukemia
MOLT-4 leukemia = test system: MOLT-4 leukemia
UO-31 renal = test system: UO-31 renal
RXF 393 renal = test system: RXF 393 renal
A498 renal = test system: A498 renal
SK-MEL-2 melanoma = test system: SK-MEL-2 melanoma
U251 CNS = test system: U251 CNS
HL-60(TB) leukemia = test system: HL-60(TB) leukemia
LOX IMVI melanoma = test system: LOX IMVI melanoma
786-0 renal = test system: 786-0 renal
SW-620 colon = test system: SW-620 colon
NCI-H23 lung = test system: NCI-H23 lung
BT-549 breast = test system: BT-549 breast
A549 NSCLC = test system: A549 NSCLC
CAKI-1 renal = test system: CAKI-1 renal
KM12 colon = test system: KM12 colon
NCI/ADR-RES ovarian = test system: NCI/ADR-RES ovarian
UACC-62 melanoma = test system: UACC-62 melanoma
SK-MEL-5 melanoma = test system: SK-MEL-5 melanoma
MALME-3M melanoma = test system: MALME-3M melanoma
NCI-H226 lung = test system: NCI-H226 lung
HOP-92 NSCLC = test system: HOP-92 NSCLC
NCI-H522 lung = test system: NCI-H522 lung
IGROV1 ovarian = test system: IGROV1 ovarian
EKVX NSCLC = test system: EKVX NSCLC
ACHN renal = test system: ACHN renal
MCF7 breast = test system: MCF7 breast
HT29 colon = test system: HT29 colon
K-562 leukemia = test system: K-562 leukemia
SN12C renal = test system: SN12C renal
HS 578T breast = test system: HS 578T breast
MDA-MB-231 breast = test system: MDA-MB-231 breast
NCI-H460 lung = test system: NCI-H460 lung
UACC-257 melanoma = test system: UACC-257 melanoma
SNB-75 CNS = test system: SNB-75 CNS
HCC-2998 colon = test system: HCC-2998 colon
MDA-MB-435 = test system: MDA-MB-435
PC-3 prostate = test system: PC-3 prostate
HOP-62 NSCLC = test system: HOP-62 NSCLC
SF-539 CNS = test system: SF-539 CNS
OVCAR-3 ovarian = test system: OVCAR-3 ovarian
COLO 205 colon = test system: COLO 205 colon
OVCAR-8 ovarian = test system: OVCAR-8 ovarian

`CCO/C=N/C1=C(C#N)C(c2ccc(OC)cc2)c2sc3c(C)cccc3c2O1` (stereo unspecified) was tested, and the GI50 (HCT-15 colon) was 0.447 µM, the TGI (HCT-15 colon) was > 38.1 µM and the GI50 (T-47D breast) was 0.561 µM. The TGI (T-47D breast) was > 100 µM, the GI50 (TK-10 renal) was 22.7 µM and the TGI (TK-10 renal) was > 100 µM. The GI50 (DU-145 prostate) was 0.571 µM, the TGI (DU-145 prostate) was > 100 µM and the GI50 (SNB-19 CNS) was 0.518 µM. The TGI (SNB-19 CNS) was > 100 µM, the GI50 (SF-268 CNS) was 0.766 µM and the TGI (SF-268 CNS) was > 100 µM. The GI50 (OVCAR-4 ovarian) was 1.48 µM, the TGI (OVCAR-4 ovarian) was > 100 µM and the GI50 (CCRF-CEM leukemia) was 0.459 µM. For the same compound, the TGI (CCRF-CEM leukemia) was > 100 µM, the GI50 (HCT-116 colon) was 0.402 µM and the TGI (HCT-116 colon) was > 38.4 µM. The GI50 (RPMI-8226 leukemia) was 0.417 µM, the TGI (RPMI-8226 leukemia) was 15.1 µM and the GI50 (SF-295 CNS) was 0.362 µM. For the same compound, the TGI (SF-295 CNS) was > 37.8 µM, the GI50 (SK-MEL-28 melanoma) was 3.42 µM and the TGI (SK-MEL-28 melanoma) was > 100 µM. For the same compound, the GI50 (OVCAR-5 ovarian) was 3.16 µM, the TGI (OVCAR-5 ovarian) was > 100 µM and the GI50 (SK-OV-3 ovarian) was 0.794 µM. For the same compound, the TGI (SK-OV-3 ovarian) was > 100 µM, the GI50 (M14 melanoma) was 0.421 µM and the TGI (M14 melanoma) was > 45 µM. For the same compound, the GI50 (SR leukemia) was 0.376 µM, the TGI (SR leukemia) was 7.84 µM and the GI50 (MOLT-4 leukemia) was 0.54 µM. For the same compound, the TGI (MOLT-4 leukemia) was > 24.3 µM, the GI50 (UO-31 renal) was 0.562 µM and the TGI (UO-31 renal) was > 100 µM. For the same compound, the GI50 (RXF 393 renal) was 0.233 µM, the TGI (RXF 393 renal) was 0.707 µM and the GI50 (A498 renal) was 0.291 µM. The TGI (A498 renal) was 1.1 µM, the GI50 (SK-MEL-2 melanoma) was 1.14 µM and the TGI (SK-MEL-2 melanoma) was > 100 µM. The GI50 (U251 CNS) was 0.51 µM, the TGI (U251 CNS) was > 39.5 µM and the GI50 (HL-60(TB) leukemia) was 0.29 µM. For the same compound, the TGI (HL-60(TB) leukemia) was 1.73 µM, the GI50 (LOX IMVI melanoma) was 0.665 µM and the TGI (LOX IMVI melanoma) was > 40.3 µM. The GI50 (786-0 renal) was 0.469 µM, the TGI (786-0 renal) was > 62.4 µM and the GI50 (SW-620 colon) was 0.527 µM. The TGI (SW-620 colon) was > 100 µM, the GI50 (NCI-H23 lung) was 0.545 µM and the TGI (NCI-H23 lung) was > 100 µM. The GI50 (BT-549 breast) was 0.65 µM, the TGI (BT-549 breast) was > 58.5 µM and the GI50 (A549 NSCLC) was 0.898 µM. For the same compound, the TGI (A549 NSCLC) was > 100 µM, the GI50 (CAKI-1 renal) was 0.321 µM and the TGI (CAKI-1 renal) was > 100 µM. For the same compound, the GI50 (KM12 colon) was 0.452 µM, the TGI (KM12 colon) was > 100 µM and the GI50 (NCI/ADR-RES ovarian) was 0.444 µM. For the same compound, the TGI (NCI/ADR-RES ovarian) was > 100 µM, the GI50 (UACC-62 melanoma) was 0.514 µM and the TGI (UACC-62 melanoma) was > 100 µM. For the same compound, the GI50 (SK-MEL-5 melanoma) was 0.5 µM, the TGI (SK-MEL-5 melanoma) was > 46.5 µM and the GI50 (MALME-3M melanoma) was 0.603 µM. The TGI (MALME-3M melanoma) was > 100 µM, the GI50 (NCI-H226 lung) was 0.457 µM and the TGI (NCI-H226 lung) was > 30.7 µM. The GI50 (HOP-92 NSCLC) was 0.851 µM, the TGI (HOP-92 NSCLC) was > 55.2 µM and the GI50 (NCI-H522 lung) was 0.426 µM. For the same compound, the TGI (NCI-H522 lung) was 10 µM, the GI50 (IGROV1 ovarian) was 0.515 µM and the TGI (IGROV1 ovarian) was > 100 µM. The GI50 (EKVX NSCLC) was 0.932 µM, the TGI (EKVX NSCLC) was > 100 µM and the GI50 (ACHN renal) was 0.699 µM. The TGI (ACHN renal) was > 100 µM, the GI50 (MCF7 breast) was 0.347 µM and the TGI (MCF7 breast) was > 81.2 µM. The GI50 (HT29 colon) was 1.14 µM, the TGI (HT29 colon) was 35.5 µM and the GI50 (K-562 leukemia) was 0.333 µM. For the same compound, the TGI (K-562 leukemia) was > 100 µM, the GI50 (SN12C renal) was 0.831 µM and the TGI (SN12C renal) was > 52.3 µM. For the same compound, the GI50 (HS 578T breast) was 0.35 µM, the TGI (HS 578T breast) was > 47.8 µM and the GI50 (MDA-MB-231 breast) was 1.57 µM. For the same compound, the TGI (MDA-MB-231 breast) was > 45 µM, the GI50 (NCI-H460 lung) was 0.407 µM and the TGI (NCI-H460 lung) was > 100 µM. For the same compound, the GI50 (UACC-257 melanoma) was > 43.5 µM, the TGI (UACC-257 melanoma) was > 100 µM and the GI50 (SNB-75 CNS) was 0.203 µM. For the same compound, the TGI (SNB-75 CNS) was 0.774 µM, the GI50 (HCC-2998 colon) was 1.07 µM and the TGI (HCC-2998 colon) was 7.78 µM. It also gave a GI50 (MDA-MB-435) of 0.243 µM, a TGI (MDA-MB-435) of 0.677 µM and a GI50 (PC-3 prostate) of 0.494 µM. The TGI (PC-3 prostate) was > 100 µM, the GI50 (HOP-62 NSCLC) was 0.552 µM and the TGI (HOP-62 NSCLC) was > 60.3 µM. It also gave a GI50 (SF-539 CNS) of 0.316 µM, a TGI (SF-539 CNS) of 1.91 µM and a GI50 (OVCAR-3 ovarian) of 0.394 µM. The TGI (OVCAR-3 ovarian) was > 100 µM, the GI50 (COLO 205 colon) was 0.818 µM and the TGI (COLO 205 colon) was 6.69 µM. For the same compound, the GI50 (OVCAR-8 ovarian) was 0.716 µM and the TGI (OVCAR-8 ovarian) was > 100 µM.
Compound `COc1cc(/C=N/NC(=O)c2cn(C3CC3)c3c(OC)c(N4CC5CCCNC5C4)c(F)cc3c2=O)ccc1O` (stereo unspecified) has a GI50 (TK-10 renal) of 1.68 µM, a TGI (TK-10 renal) of 3.1 µM and a GI50 (DU-145 prostate) of 1.86 µM. For the same compound, the TGI (DU-145 prostate) was 3.31 µM, the GI50 (RPMI-8226 leukemia) was 1.88 µM and the TGI (RPMI-8226 leukemia) was 4.38 µM. The GI50 (OVCAR-5 ovarian) was 1.65 µM, the TGI (OVCAR-5 ovarian) was 3.05 µM and the GI50 (MOLT-4 leukemia) was 2.3 µM. For the same compound, the TGI (MOLT-4 leukemia) was 5.33 µM, the GI50 (UO-31 renal) was 1.53 µM and the TGI (UO-31 renal) was 2.93 µM. It also gave a GI50 (A498 renal) of 1.76 µM, a TGI (A498 renal) of 3.18 µM and a GI50 (SK-MEL-2 melanoma) of 1.85 µM. For the same compound, the TGI (SK-MEL-2 melanoma) was 3.68 µM, the GI50 (SW-620 colon) was 1.73 µM and the TGI (SW-620 colon) was 3.27 µM. The GI50 (CAKI-1 renal) was 1.67 µM, the TGI (CAKI-1 renal) was 3.12 µM and the GI50 (KM12 colon) was 1.67 µM. The TGI (KM12 colon) was 3.11 µM, the GI50 (NCI/ADR-RES ovarian) was 58.8 µM and the TGI (NCI/ADR-RES ovarian) was > 100 µM. For the same compound, the GI50 (UACC-62 melanoma) was 1.72 µM, the TGI (UACC-62 melanoma) was 3.28 µM and the GI50 (SK-MEL-5 melanoma) was 17.6 µM. For the same compound, the TGI (SK-MEL-5 melanoma) was 41.3 µM, the GI50 (MALME-3M melanoma) was 1.69 µM and the TGI (MALME-3M melanoma) was 3.21 µM. It also gave a GI50 (HOP-92 NSCLC) of 1.66 µM, a TGI (HOP-92 NSCLC) of 3.16 µM and a GI50 (NCI-H522 lung) of 1.79 µM. The TGI (NCI-H522 lung) was 3.4 µM, the GI50 (ACHN renal) was 1.7 µM and the TGI (ACHN renal) was 3.09 µM. It also gave a GI50 (HT29 colon) of 1.83 µM, a TGI (HT29 colon) of 3.38 µM and a GI50 (SN12C renal) of 1.83 µM. It also gave a TGI (SN12C renal) of 3.46 µM, a GI50 (MDA-MB-231 breast) of 1.69 µM and a TGI (MDA-MB-231 breast) of 3.22 µM. It also gave a GI50 (NCI-H460 lung) of 1.87 µM, a TGI (NCI-H460 lung) of 3.5 µM and a GI50 (SNB-75 CNS) of 1.43 µM. The TGI (SNB-75 CNS) was 2.81 µM, the GI50 (PC-3 prostate) was 1.74 µM and the TGI (PC-3 prostate) was 3.28 µM. The GI50 (SF-539 CNS) was 1.73 µM and the TGI (SF-539 CNS) was 3.21 µM.
